Measurements from patent US10221181B2, “6-amino-7-bicyclo-7-deaza-purine derivatives as protein kinase inhibitors” (NERVIANO MEDICAL SCIENCES S.r.l., priority 2014, dated 2019).
Like-named read-outs stand apart in the source and are kept apart here.

Legend:
Format in all cases: cell-based
[1] = tested on: A2780 ovarian carcinoma; test: In vitro cell proliferation assay, A2780 (non RET-dependent control); conditions: Homo sapiens
Experimental: (§1) In Vitro Cell Proliferation Assay
(§2) To evaluate the antiproliferative activity of a compound of formula (I) the following human cell lines were used: A2780 ovarian carcinoma; TT medullary thyroid carcinoma, harboring a mutated RET-C634W receptor; LC-2/ad human lung adenocarcinoma, harboring the CCDC6-RET fusion protein. Exponentially growing cells were seeded and incubated at 37° C. in a humidified 5% CO2 atmosphere using appropriate medium supplemented with 10% Fetal Bovine Serum. 24 hours following cell plating, scalar doses of the compounds dissolved in 0.1% DMSO were added to the medium and cells were exposed to drugs for either 72 hours (A2780) or 144 hours (TT and LC-2/ad), according to their different proliferation rate. At the end of treatment, cell proliferation was determined by an intracellular ATP monitoring system (CellTiterGlo—Promega), following manufacturer's instructions, and using an Envision instrument (PerkinElmer) as reader. Data obtained from compound versus vehicle treated cells were compared using Assay Explorer (Symyx Technologies Inc) software. IC50 values were calculated using sigmoidal interpolation curve fitting. In the following Table A the antiproliferative activity of representative compounds of formula (I) on one medullary thyroid carcinoma cell line expressing the aforementioned mutated forms of RET (TT) and on one lung adenocarcinoma cell line harboring the aforementioned fusion form of RET (LC-2/ad) is reported. As control, the antiproliferative activity of the same compounds on an unrelated non RET-dependent cell line (A2780) is reported. All these compounds show remarkable activity on RET-driven cellular models with respect to the unrelated ones.

[2] = tested on: LC-2/ad human lung adenocarcinoma, harboring the CCDC6-RET fusion protein; test: In vitro cell proliferation assay, LC-2/ad
Experimental: as §1, §2

[3] = tested on: TT medullary thyroid carcinoma, harboring a mutated RET-C634W receptor; test: In vitro cell proliferation assay, TT; conditions: Homo sapiens
Experimental: as §1, §2

[4] = A2780, antiproliferative activity, 72 hours exposure, CellTiterGlo ATP readout, unrelated non RET-dependent cell line, read-out: A2780 IC50
[5] = antiproliferative activity, 144 hours exposure, CellTiterGlo ATP readout, CCDC6-RET fusion, read-out: LC-2/ad IC50
[6] = antiproliferative activity, 144 hours exposure, CellTiterGlo ATP readout, RET-C634W, read-out: TT IC50
[7] = A2780, 72 h, read-out: A2780 IC50 (μM)
[8] = 144 h, read-out: LC-2/ad IC50 (μM)

Row | SMILES | IC50 [1, 4] [µM] | IC50 [2, 5] [µM] | IC50 [3, 6] [µM] | IC50 [1, 7] [µM] | IC50 [2, 8] [µM] | IC50 ([3]; 144 h, read-out: TT IC50 (μM)) [µM]
1 | CC(C)n1cc(-c2ccc3c(C(=O)NC4CC4)cccc3c2)c2c(N)ncnc21 [cmpd 1, 6-(4-Amino-7-isopropyl-7H-pyrrolo[2,3-d]pyrimidin-5-yl)-naphthalene-1-carboxylic acid cyclopropylamide] | 0.867 | 0.003 | 0.001 |  |  | 
2 | Nc1ncnc2c1c(-c1ccc3c(C(=O)NC4CC4)cccc3c1)cn2C1CCCC1 [cmpd 3, 6-(4-Amino-7-cyclopentyl-7H-pyrrolo[2,3-d]pyrimidin-5-yl)-naphthalene-1-carboxylic acid cyclopropylamide] | 0.385 | 0.006 | 0.003 |  |  | 
3 | CC(C)n1cc(-c2ccc3c(C(N)=O)cccc3c2)c2c(N)ncnc21 [cmpd 4, 6-(4-Amino-7-isopropyl-7H-pyrrolo[2,3-d]pyrimidin-5-yl)-naphthalene-1-carboxylic acid amide] | 2.42 | 0.021 | 0.017 |  |  | 
4 | CC(C)NC(=O)c1cccc2cc(-c3cn(C(C)C)c4ncnc(N)c34)ccc12 [cmpd 5, 6-(4-Amino-7-isopropyl-7H-pyrrolo[2,3-d]pyrimidin-5-yl)-naphthalene-1-carboxylic acid isopropylamide] |  |  |  | 2.94 | 0.082 | 0.086
5 | CNC(=O)c1cccc2cc(-c3cn(C(C)C)c4ncnc(N)c34)ccc12 [cmpd 6, 6-(4-Amino-7-isopropyl-7H-pyrrolo[2,3-d]pyrimidin-5-yl)-naphthalene-1-carboxylic acid methylamide] | 0.348 | 0.049 | 0.024 |  |  | 
6 | CC(C)n1cc(-c2ccc3c(C(=O)NCC(F)(F)F)cccc3c2)c2c(N)ncnc21 [cmpd 7, 6-(4-Amino-7-isopropyl-7H-pyrrolo[2,3-d]pyrimidin-5-yl)-naphthalene-1-carboxylic acid (2,2,2-trifluoro-ethyl)-amide] | 2.81 | 0.046 | 0.048 |  |  | 
7 | Nc1ncnc2c1c(-c1ccc3c(C(=O)NC4CC4)cccc3c1)cn2C1CCOCC1 [cmpd 8, 6-[4-Amino-7-(tetrahydro-pyran-4-yl)-7H-pyrrolo[2,3-d]pyrimidin-5-yl]-naphthalene-1-carboxylic acid cyclopropylamide] | 0.814 | 0.011 | 0.009 |  |  | 
8 | CC(C)n1cc(-c2ccc3c(C(=O)Nc4ccc(CN5CCN(C)CC5)c(C(F)(F)F)c4)cccc3c2)c2c(N)ncnc21 [cmpd 10, 6-(4-Amino-7-isopropyl-7H-pyrrolo[2,3-d]pyrimidin-5-yl)-naphthalene-1-carboxylic acid [4-(4-methyl-piperazin-1-ylmethyl)-3-trifluoromethyl-phenyl]-amide] | 0.072 | 0.008 | 0.002 |  |  | 
9 | CC(C)n1cc(-c2ccc3c(C(=O)NC4CCC4)cccc3c2)c2c(N)ncnc21 [cmpd 11, 6-(4-Amino-7-isopropyl-7H-pyrrolo[2,3-d]pyrimidin-5-yl)-naphthalene-1-carboxylic acid cyclobutylamide] | 0.961 | 0.034 | 0.028 |  |  | 
10 | Nc1ncnc2c1c(-c1ccc3c(C(=O)NC4CC4)cccc3c1)cn2C1CCC1 [cmpd 12, 6-(4-Amino-7-cyclobutyl-7H-pyrrolo[2,3-d]pyrimidin-5-yl)-naphthalene-1-carboxylic acid cyclopropylamide] | 1.84 | 0.051 | 0.042 |  |  | 
11 | Nc1ncnc2c1c(-c1ccc3c(C(=O)NC4CC4)cccc3c1)cn2CC1CC1 [cmpd 13, 6-(4-Amino-7-cyclopropylmethyl-7H-pyrrolo[2,3-d]pyrimidin-5-yl)-naphthalene-1-carboxylic acid cyclopropylamide] | 0.463 | 0.006 | 0.007 |  |  | 
12 | CC(C)n1cc(-c2ccc3c(c2)CCN3C(=O)NC2CC2)c2c(N)ncnc21 [cmpd 16, 5-(4-Amino-7-isopropyl-7H-pyrrolo[2,3-d]pyrimidin-5-yl)-2,3-dihydro-indole-1-carboxylic acid cyclopropylamide] |  |  |  | 2.19 | 0.084 | 0.077
13 | Nc1ncnc2c1c(-c1ccc3c(C(=O)NC4CC4)cccc3c1)cn2C1CCC(F)(F)CC1 [cmpd 30, 6-[4-Amino-7-(4,4-difluoro-cyclohexyl)-7H-pyrrolo[2,3-d]pyrimidin-5-yl]-naphthalene-1-carboxylic acid cyclopropylamide] | 2.34 | 0.04 | 0.03 |  |  | 
